In patent US6541477B2, “Inhibitors of p38-a kinase” (Scios, Inc., priority 1999, dated 2003):
One block for each molecule: values may come before it.

What was measured:
p38-α kinase [1] = target: T1, p38-α kinase (Homo sapiens, UniProt Q16539); assay: biochemical; details: for inhibition at 15 µM: read-out: % Inhibition of p38α kinase at 15 μM; for inhibition at 0.2 µM: read-out: percent inhibition of p38α at 200 nM
[2] = Molar refraction (MR) of the ortho substituent as a measure of its size; format: physicochemical; details: as described by Hansch, J Med Chem 1973
Method: The molar refraction values for the ortho derivatives containing chloro, bromo and methoxy substituents were determined as a measure of the size of the substituent as described by Hansch, C. et al., J Med Chem (1973) 16:1207-1216. A linear correlation between the MR values and percent inhibition of p38α at 200 nM concentrations of the compounds was obtained. […] Thus, it appears that the ability to inhibit p38α kinase is dependent on the size of the ortho substituent. While not intending to be bound by any theory, applicants believe that the bulkier substituents rotate the aroyl moiety out of the plane of the piperidine or piperazine ring.

p38-α kinase [3] = target: T1, p38-α kinase; details: 15 μM compound

T1 sequence (Q16539 whole entry): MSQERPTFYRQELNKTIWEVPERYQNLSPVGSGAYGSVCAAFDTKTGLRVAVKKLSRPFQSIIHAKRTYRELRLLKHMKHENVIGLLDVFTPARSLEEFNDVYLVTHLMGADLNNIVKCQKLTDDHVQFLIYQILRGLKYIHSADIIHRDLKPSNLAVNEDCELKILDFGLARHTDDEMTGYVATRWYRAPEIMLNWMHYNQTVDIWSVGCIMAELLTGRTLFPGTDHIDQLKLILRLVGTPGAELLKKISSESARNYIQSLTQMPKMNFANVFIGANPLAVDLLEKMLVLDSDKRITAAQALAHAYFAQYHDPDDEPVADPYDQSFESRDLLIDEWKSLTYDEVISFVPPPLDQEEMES

- MR value (molar refraction) [2]: about 6
- inhibition at 15 µM (p38-α kinase [1]): 99%
- inhibition at 0.2 µM (p38-α kinase [1]): 52%
Structure (SMILES): O=C(c1ccccc1Cl)N1CCC(Cc2ccccc2)CC1 [compound 7, 1-(2-chlorobenzoyl)-4-benzyl piperidine]

- MR value (molar refraction) [2]: approximately 9
- inhibition at 15 µM (p38-α kinase [1]): 99%
- inhibition at 0.2 µM (p38-α kinase [1]): 72%
Structure (SMILES): O=C(c1ccccc1Br)N1CCC(Cc2ccccc2)CC1 [compound 8, 1-(2-bromobenzoyl)-4-benzyl piperidine]

- MR value (molar refraction) [2]: about 8
Structure (SMILES): COc1ccccc1C(=O)N1CCC(Cc2ccccc2)CC1 [compound 10, 1-(2-methoxybenzoyl)-4-benzyl piperidine]

- inhibition at 15 µM (p38-α kinase [1]): 98%
Structure (SMILES): Cc1ccccc1C(=O)N1CCC(Cc2ccccc2)CC1 [compound 11, 1-(2-methylbenzoyl)-4-benzyl piperidine]

- % Inhibition of p38α kinase at 15 μM (p38-α kinase [3]): 98%
Structure (SMILES): O=C(c1ccccc1C(F)(F)F)N1CCC(Cc2ccccc2)CC1 [ortho-CF3]

- % Inhibition of p38α kinase at 15 μM (p38-α kinase [3]): 98%
Structure (SMILES): O=C(c1ccccc1F)N1CCC(Cc2ccccc2)CC1 [ortho-F]

Continued, molecule first:

Structure (SMILES): COc1ccc(C(=O)N2CCC(Cc3ccccc3)CC2)cc1 [compound 2, 1-(4-methoxybenzoyl)-4-benzyl piperidine]
- IC50 (p38-α kinase [1]): 605 nM

Structure (SMILES): COc1cccc(C(=O)N2CCC(Cc3ccccc3)CC2)c1 [compound 5, 1-(3-methoxybenzoyl)-4-benzyl piperidine]
- IC50 (p38-α kinase [1]): 1100 nM

Structure (SMILES): O=C(c1cccc(Br)c1)N1CCC(Cc2ccccc2)CC1 [meta-Br]
- % Inhibition of p38α kinase at 15 μM (p38-α kinase [3]): 74%

Structure (SMILES): O=C(c1cccc(C(F)(F)F)c1)N1CCC(Cc2ccccc2)CC1 [meta-CF3]
- % Inhibition of p38α kinase at 15 μM (p38-α kinase [3]): 49%

Structure (SMILES): O=C(c1cccc(Cl)c1)N1CCC(Cc2ccccc2)CC1 [meta-Cl]
- % Inhibition of p38α kinase at 15 μM (p38-α kinase [3]): 80%

Structure (SMILES): O=C(c1cccc(F)c1)N1CCC(Cc2ccccc2)CC1 [meta-F]
- % Inhibition of p38α kinase at 15 μM (p38-α kinase [3]): 92%

Structure (SMILES): Cc1cccc(C(=O)N2CCC(Cc3ccccc3)CC2)c1 [meta-methyl]
- % Inhibition of p38α kinase at 15 μM (p38-α kinase [3]): 90%

Structure (SMILES): O=C(c1ccc(Br)cc1)N1CCC(Cc2ccccc2)CC1 [para-Br]
- % Inhibition of p38α kinase at 15 μM (p38-α kinase [3]): 96%

Structure (SMILES): O=C(c1ccc(C(F)(F)F)cc1)N1CCC(Cc2ccccc2)CC1 [para-CF3]
- % Inhibition of p38α kinase at 15 μM (p38-α kinase [3]): 66%

Structure (SMILES): O=C(c1ccc(Cl)cc1)N1CCC(Cc2ccccc2)CC1 [para-Cl]
- % Inhibition of p38α kinase at 15 μM (p38-α kinase [3]): 85%

Structure (SMILES): O=C(c1ccc(F)cc1)N1CCC(Cc2ccccc2)CC1 [para-F]
- % Inhibition of p38α kinase at 15 μM (p38-α kinase [3]): 94%

Structure (SMILES): Cc1ccc(C(=O)N2CCC(Cc3ccccc3)CC2)cc1 [para-methyl]
- % Inhibition of p38α kinase at 15 μM (p38-α kinase [3]): 97%
